Measurements as given in patent publication US9321737B2, “CDK8-CDK19 selective inhibitors and their use in anti-metastatic and chemopreventative methods for cancer” (SENEX BIOTECHNOLOGY INC, priority 2012, dated 2016).

Columns and labels:
[1] = tested on: CDKI pathway (CMV promoter stimulation by p21) in HT1080 fibrosarcoma cells; experiment: CDKI pathway inhibition cellular assay (CMV-GFP induction by IPTG-inducible p21); format: cell-based, human; details: IPTG-induced p21, CMV-GFP / Hoechst 33342, read-out: Cell-based Assay EC50
Protocol: The compounds described below are shown in Table 1 and the structures of some novel compounds according to the invention are shown in FIG. 1. […] All the compounds were tested for the ability to inhibit the CDKI pathway in a cellular assay described in our previous patent application PCT/US06/01046. This assay is based on the induction of green fluorescent protein (GFP) expression from the cytomegalovirus (CMV) promoter in human HT1080 fibrosarcoma cells that express CDKI p21 from an isopropyl-β-thio-galactoside (IPTG)-inducible promoter. The compound activity as a CDKI pathway inhibitor is measured by its ability to prevent the stimulation of the CMV promoter upon the addition of p21-inducing IPTG. CMV promoter activity is measured by the ratio of GFP fluorescence to the relative cell number, as determined by staining cellular DNA with Hoechst 33342.

[2] = Solubility in 20% propylene glycol; format: physicochemical; details: 1 mM, 40° C., 30 min, centrifuged, OD reading
Protocol: (§1) The compounds were also tested for solubility in 20% propylene glycol and in water, as follows. Compounds (dry powder) were dissolved in 20% propylene glycol at a concentration of 1 mM at a temperature of 40° C. with occasional vortexing. After 30 min, the solution was centrifuged at 10,000×g for 5 min. Serial dilutions of the cleared supernatant were prepared and used to measure the compound concentrations through OD reading, relative to 1 μM standard solution of the same compound. The results of the measurement were expressed as % solubility of the compound at 1 mM in 20% propylene glycol. To determine water solubility, the compounds (dry powder) were initially dissolved in water at a concentration of 100 mM at a temperature of 40° C. with occasional vortexing. After 30 min, the solution was centrifuged at 10,000×g for 5 min, and the formation of an insoluble pellet was monitored. At subsequent steps, the compound was attempted to be dissolved at lower concentrations, until no pellet was observed after centrifugation, indicating complete solution of the compound.

Water solubility = format: physicochemical; details: 40° C., 30 min, no pellet after centrifugation
Protocol: as §1

MDA-MB-231 = MDA-MB-231 orthotopic TNBC xenograft; format: in vivo, female SCID mice; details: 1 mg/kg doxorubicin single dose, three rounds
Protocol: Once tumors were formed, mice were randomized into 4 cohorts (n=10) and treated, at 7-10 day intervals, with three rounds of: vehicle (5 daily doses), 1 mg/kg doxorubicin (single dose), 40 mg/kg Senexin B (5 daily doses) or doxorubicin (single dose)+Senexin B (5 daily doses).

MDA-MB-468 = MDA-MB-468 TNBC xenograft model; format: in vivo, female nude mice; details: 40 mg/kg Senexin B daily i.p.; 4 mg/kg doxorubicin two injections two weeks apart
Protocol: Female nude mice were inoculated with MDA-MB-468 cells, and once palpable tumors were formed, mice were randomized into 4 groups, treated daily i.p. with vehicle alone (n=12), 40 mg/kg Senexin B, two injections with 4 mg/kg doxorubicin two weeks apart, or doxorubicin combined with Senexin B (n=8 in each of the latter groups).

[3] = tested on: MDA-MB-468 TNBC tumor invasion; experiment: Histological analysis of MDA-MB-468 tumor invasion (H&E); format: in vivo, female nude mice; details: tumors from FIG. 15B experiment
Source text: At the end of the experiment shown in FIG. 15B, mice were sacrificed, tumors were removed, formalin fixed, sectioned and processed for histological analysis after H&E staining.

SMILES	EC50 [1] [µM]	% solubility at 1 mM in 20% propylene glycol [2] [%]	Water Solubility (Water solubility)	lower body weight than control mice (MDA-MB-231)	tumor growth (tumor volumes after 30 days of treatment) (MDA-MB-468)	invasive or non-invasive tumor growth [3]
CN1CCN(C(=O)c2ccc(CCNc3ncnc4ccc(C#N)cc34)cc2)CC1 [SNX2-1-153]	5.21	100	Soluble at 10 mM			
COCCNC(=O)c1ccc(CCNc2ncnc3ccc(C#N)cc23)cc1 [SNX2-1-150]	2.2	100	Soluble at 10 mM			
CN(C)CCNC(=O)c1ccc(CCNc2ncnc3ccc(C#N)cc23)cc1 [SNX2-1-155]	4.57	100	Soluble at 10 mM			
N#Cc1ccc2ncnc(NCCc3ccc(C(=O)N4CCCCC4)cc3)c2c1 [SNX2-1-152]	3.83	100				
COc1cccc2c1C(=O)c1c(O)c3c(c(O)c1C2=O)C[C@@](O)(C(=O)CO)C[C@@H]3O[C@H]1C[C@H](N)[C@H](O)[C@H](C)O1 [doxorubicin, reference compound]				about 15%	significantly slowed down the tumor growth	displayed invasive growth
